# Measurements from PubChem BioAssay (NCI).
# Values joined by “and” are separate entries in the source; they are usually repeats but may differ in a detail not shown here. Equal entries are not always repeated.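 Exposure lasted 48 hours, with cells grown in 96-well plates and compounds tested at five concentrations. GI50 marks 50% less growth. TGI is the concentration that stops growth completely.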
# Tests used:
# Assay in all cases: NCI tumour cell line growth inhibition, 48 h
# 786-0 renal = test system: 786-0 renal
# A498 renal = test system: A498 renal
# A549 NSCLC = test system: A549 NSCLC
# BT-549 breast = test system: BT-549 breast
# HL-60(TB) leukemia = test system: HL-60(TB) leukemia
# MCF7 breast = test system: MCF7 breast
# MDA-MB-231 breast = test system: MDA-MB-231 breast
# MDA-MB-435 = test system: MDA-MB-435
# MDA-N = test system: MDA-N
# NCI-H23 lung = test system: NCI-H23 lung
# OVCAR-3 ovarian = test system: OVCAR-3 ovarian
# OVCAR-4 ovarian = test system: OVCAR-4 ovarian
# SN12C renal = test system: SN12C renal
# SNB-75 CNS = test system: SNB-75 CNS
# T-47D breast = test system: T-47D breast
SMILES,TGI (786-0 renal),TGI (A498 renal),TGI (A549 NSCLC),TGI (BT-549 breast),TGI (HL-60(TB) leukemia),TGI (MCF7 breast),TGI (MDA-MB-231 breast),TGI (MDA-MB-435),TGI (MDA-N),TGI (NCI-H23 lung),TGI (OVCAR-3 ovarian),TGI (OVCAR-4 ovarian),TGI (SN12C renal),TGI (SNB-75 CNS),TGI (T-47D breast),GI50 (NCI-H23 lung),GI50 (OVCAR-3 ovarian),GI50 (OVCAR-4 ovarian),GI50 (SN12C renal),GI50 (SNB-75 CNS)
COc1ccc(/C=C/C(=O)c2cccc(C(=O)/C=C/c3ccc(OC)c(OC)c3)n2)cc1OC,27.5 µM,> 100 µM,> 100 µM,44.9 µM,92.2 µM,> 100 µM,70.6 µM,> 100 µM,34.8 µM,> 100 µM,> 100 µM,> 100 µM,30.1 µM,> 100 µM,> 100 µM,,,,,
CN(C(=O)C12C3C4C1C1C2C3C41C(=O)O)C(C)(C)C (stereo not drawn),> 100 µM,> 100 µM,> 100 µM,> 100 µM,> 100 µM,> 100 µM,> 100 µM,> 100 µM,> 100 µM,> 100 µM,> 100 µM,> 100 µM,> 100 µM,> 100 µM,> 100 µM,,,,,
O=c1cnn(C/C=C/CP(=O)(O)O)c(=O)[nH]1,,> 100 µM,> 100 µM,> 100 µM,> 100 µM,> 100 µM,> 100 µM,> 100 µM,> 100 µM,> 100 µM,> 100 µM,,> 100 µM,> 100 µM,> 100 µM,,,,,
COc1ccc(-c2c(C#N)c(N)n(C3OCC(O)C(O)C3O)c(=S)c2C#N)cc1 (stereo not drawn),> 100 µM,> 100 µM,> 100 µM,> 100 µM,> 100 µM,> 100 µM,> 100 µM,> 100 µM,> 100 µM,> 100 µM,> 100 µM,,> 100 µM,> 100 µM,> 100 µM,,,,,
Cc1cccc(/C=N/NC(=S)NC2CCCCC2)n1,98.3 µM,> 71.4 µM,> 88.9 µM,> 100 µM,> 44.5 µM,> 100 µM,> 100 µM,> 100 µM,> 93.1 µM,> 100 µM,> 29.3 µM,> 100 µM,> 100 µM,> 100 µM,> 86.3 µM,,,,,
CN(C)c1ccc(/C=C(\NC(=O)c2ccccc2)c2nc3ccccc3c(=O)o2)cc1,> 100 µM,> 100 µM,> 100 µM,> 100 µM,> 100 µM,> 100 µM,> 100 µM,> 100 µM,> 100 µM,> 100 µM,> 100 µM,> 100 µM,> 100 µM,> 100 µM,> 100 µM,,,,,
COc1ccc(OC)c2sc(N3C(=O)/C(=C/c4ccc(N(C)C)cc4)N=C3c3ccccc3)nc12,> 100 µM,> 100 µM,> 100 µM,> 100 µM,64.3 µM,63.4 µM,> 100 µM,> 100 µM,61.3 µM,,> 100 µM,> 100 µM,> 100 µM,> 100 µM,> 100 µM,,,,,
CC(C)(C)c1cc(C(C)(C)C)c(P=C(Cl)Cl)c(C(C)(C)C)c1 (stereo not drawn),> 100 µM,> 100 µM,> 100 µM,> 100 µM,> 100 µM,> 100 µM,> 100 µM,> 100 µM,> 100 µM,> 100 µM,> 100 µM,> 100 µM,> 100 µM,> 100 µM,> 100 µM,,,,,
COC(=O)C1C(O)C(C)C(O)C(C)/C=C\C=C(C)C(=O)Nc2c(C)c(OC(C)=O)c3c(c2O)C(=O)C(C)=C2OCOC(=C23)C(C)=CC(C)(O)C(O)C(C)C1O (stereo not drawn),> 100 µM,> 75 µM,> 100 µM,> 100 µM,42.2 µM and > 100 µM,51.1 µM and > 100 µM,> 100 µM,> 100 µM,> 100 µM,58.9 µM and > 100 µM,> 72 µM and 64.2 µM,> 100 µM,> 100 µM,> 100 µM,> 100 µM,32.6 µM and > 100 µM,37.8 µM,> 66.3 µM and 14.6 µM,49 µM and > 100 µM,35.3 µM and 5.07 µM
O=C(c1c(F)c(F)c(F)c(F)c1F)n1c(=O)[nH]c2ccccc21,47.4 µM,33.6 µM,32.5 µM,37.5 µM,5.05 µM,16.8 µM,26.8 µM,21.9 µM,20.5 µM,11.4 µM,24 µM,31.8 µM,28.3 µM,30.5 µM,17.6 µM,,,,,
O=c1[nH]nc(Cc2ccccc2)n1N=C1CCCCC1,> 100 µM,> 100 µM,> 100 µM,> 100 µM,> 100 µM,> 100 µM,> 100 µM,> 100 µM,> 100 µM,> 100 µM,> 100 µM,> 100 µM,> 100 µM,,> 100 µM,,,,,
CSC1=C(C)S/C(=C\c2ccc(/C=C3\SC(C)=C(SC)S3)cc2)S1,> 100 µM,> 100 µM,> 100 µM,> 100 µM,> 100 µM,> 100 µM,> 100 µM,> 100 µM,> 100 µM,> 100 µM,> 100 µM,> 100 µM,> 100 µM,> 100 µM,> 100 µM,,,,,
COC(=O)/N=[N+](\[O-])C(c1ccc(Cl)cc1)c1ccc(Cl)cc1,96.5 µM,> 100 µM,> 100 µM,> 100 µM,97.3 µM,> 100 µM,77.1 µM,> 100 µM,> 100 µM,> 100 µM,> 100 µM,> 100 µM,> 100 µM,> 100 µM,91.9 µM,,,,,
N#Cc1c(Cl)cccc1Oc1ccc(S(=O)(=O)/N=C(\NO)Nc2ccc(Cl)cc2)cc1,26.5 µM,30.6 µM,32.2 µM,30.9 µM,37.8 µM,46.2 µM,37.4 µM,31.7 µM,29.9 µM,34.6 µM,29.2 µM,31.4 µM,29.4 µM,,28.3 µM,,,,,
COc1ccc(/C=C/C(=N/NC(=O)N/N=C(/C=C/c2ccc(OC)cc2)C(C)C)C(C)C)cc1,> 100 µM,> 100 µM,> 100 µM,> 100 µM,> 100 µM,> 100 µM,> 100 µM,> 100 µM,> 100 µM,> 100 µM,> 100 µM,> 100 µM,> 100 µM,> 100 µM,> 100 µM,,,,,
COc1ccccc1-c1n[nH]c(-c2ccccc2O)n1,> 100 µM,> 100 µM,> 100 µM,> 100 µM,> 100 µM,> 100 µM,> 100 µM,> 100 µM,> 100 µM,> 100 µM,> 100 µM,> 100 µM,> 100 µM,> 100 µM,> 100 µM,,,,,
COC(=O)C1=C(C(=O)OC)C2(c3ccccc3)c3ccccc3C(=O)C1N2C1CCCCC1 (stereo not drawn),> 100 µM,> 100 µM,> 100 µM,> 100 µM,> 100 µM,> 100 µM,> 100 µM,> 100 µM,> 100 µM,> 100 µM,> 100 µM,> 100 µM,> 100 µM,> 100 µM,> 100 µM,,,,,
c1ccc2nc3c(nc2c1)sc1nc2ccccc2n13,> 100 µM,> 100 µM,> 100 µM,> 100 µM,> 100 µM,> 100 µM,> 100 µM,> 100 µM,> 100 µM,> 100 µM,> 100 µM,,> 100 µM,> 100 µM,> 100 µM,,,,,
COC(=O)C1=C(O)C(C(=O)OC)[C@]2(O)[C@H](C(=O)OC)[C@H]1C[C@@H](c1ccc(O)cc1)[C@H]2C(=O)OC (stereo partly drawn),> 100 µM,> 100 µM,> 100 µM,91.5 µM,95.1 µM,> 100 µM,60.7 µM,> 100 µM,> 100 µM,> 100 µM,35.6 µM,> 100 µM,> 100 µM,81.5 µM,> 100 µM,,,,,
CCOC(=O)N(C)CCC1CC=CC(=O)C1c1cccc(OC)c1OC (stereo not drawn),45.7 µM,> 100 µM,91 µM,34.3 µM,52.5 µM,56.6 µM,> 100 µM,28.8 µM,36.4 µM,36.3 µM,38.8 µM,> 100 µM,39.7 µM,,77.1 µM,,,,,
CN(C)Cc1cc(N=Nc2c(Cl)cccc2Cl)ccc1O,> 100 µM,> 100 µM,> 100 µM,> 100 µM,> 100 µM,> 100 µM,> 100 µM,> 100 µM,> 100 µM,> 100 µM,> 100 µM,> 100 µM,> 100 µM,> 100 µM,> 100 µM,,,,,
CC1(C)C2CC1C(/C=N\OCC(=O)O)=CC2=O (stereo not drawn),> 100 µM,> 100 µM,> 100 µM,> 100 µM,> 100 µM,> 100 µM,> 100 µM,> 100 µM,> 100 µM,> 100 µM,> 100 µM,> 100 µM,> 100 µM,97.9 µM,> 100 µM,,,,,
Cc1cc2c(c(C=Nc3ccc(N(C)C)cc3)c1)OC1(C=C2)Oc2ccccc2C(=O)N1C (stereo not drawn),28.2 µM,42.1 µM,55.6 µM,29.4 µM,19.9 µM,37.9 µM,24.8 µM,26.7 µM,28.1 µM,28.4 µM,> 50.1 µM,25.1 µM,30 µM,39.5 µM,57.5 µM,,,,,
CNc1nc2c(C)ccc3nc(N(C)C)nc-3c2n1C,> 10 µM,> 10 µM,> 10 µM,> 10 µM,,> 10 µM,> 10 µM,> 10 µM,> 10 µM,> 10 µM,> 10 µM,> 10 µM,> 10 µM,> 10 µM,> 10 µM,,,,,
CC(=O)N1c2ccccc2C2=NN=C(N(C)C)SC21 (stereo not drawn),12.5 µM,11.7 µM,11.8 µM,24.2 µM,5.07 µM,14.9 µM,11 µM,31.3 µM,19.7 µM,19.3 µM,9.46 µM,29.8 µM,6.93 µM,26.4 µM,14.9 µM,,,,,
COC(=O)C1=C(O)C(C(=O)OC)[C@]2(O)[C@H](C(=O)OC)[C@H]1C[C@@H](c1ccc(Cl)cc1Cl)[C@H]2C(=O)OC (stereo partly drawn),> 100 µM,30.4 µM,24.5 µM,66.6 µM,7.9 µM,23 µM,60 µM,21.2 µM,11 µM,19.1 µM,24.9 µM,67.6 µM,22.2 µM,37.2 µM,96.9 µM,,,,,
O=C(/C=C/c1ccsc1)c1cccs1,> 100 µM,> 100 µM,> 100 µM,48 µM,,52.2 µM,> 100 µM,> 10 µM,> 100 µM,68 µM,57.3 µM,> 100 µM,41.9 µM,> 100 µM,54.3 µM,,,,,
COc1ccc2c(c1)nc1n2C(c2c(F)cccc2F)SC1 (stereo not drawn),> 100 µM,> 100 µM,> 100 µM,> 100 µM,> 100 µM,> 100 µM,> 100 µM,> 100 µM,> 100 µM,> 100 µM,> 100 µM,> 100 µM,> 100 µM,> 100 µM,> 100 µM,,,,,
Cc1nc(C)c(N2CCN(C(=O)NC(CCC(=O)O)C(=O)O)CC2)c(=O)[nH]1 (stereo not drawn),> 100 µM,> 100 µM,> 100 µM,> 100 µM,> 100 µM,> 100 µM,> 100 µM,> 100 µM,> 100 µM,> 100 µM,> 100 µM,> 100 µM,> 100 µM,,> 100 µM,,,,,
CC(C)C(=O)CC(Sc1ccc(N)cc1)c1ccccc1 (stereo not drawn),> 100 µM,89.1 µM,> 100 µM,65.6 µM,49.2 µM,47.1 µM,60.5 µM,39.8 µM,35.5 µM,58.2 µM,67.8 µM,,64.9 µM,> 100 µM,71.6 µM,,,,,
